Test results from publication PMC7993375, “Discovery of novel quinoline-based analogues of combretastatin A-4 as tubulin polymerisation inhibitors with apoptosis inducing activity and potent anticancer effect” (Journal of Enzyme Inhibition and Medicinal Chemistry, 2021).

Assays:
HCT-116 = experiment: MTT cell viability assay, HCT-116 colorectal carcinoma cells; format: cell-based; conditions: Homo sapiens, 72 h
Procedure: (§1) The four human tumour cell lines MCF-7, HCT-116, HL-60 and HeLa used in this study were obtained from the VACSERA (Giza, Egypt) cell culture unit that were originally acquired from ATCC (Manassas, VA, USA). All the human tumour cell lines were cultured in Dulbecco’s Modified Eagle’s Medium (DMEM) with 10% foetal bovine serum, 2 mM L-glutamine and 100 µg/mL penicillin/streptomycin. Cells were maintained at 37 °C in 5% CO2 in a humidified incubator. All cells were sub-cultured 3 times/week by trypsinisation using TrypLE Express (1X).
(§2) The quinoline compounds were evaluated for antiproliferative effect using the MTT viability assay of four cancer cell lines (MCF-7, HCT-116, HL-60 and HeLa) and normal breast cells MCF-10A to calculate the relative IC50 values for each compound. Cells were seeded in triplicate in 96-well plates at a density of 10 × 10^3 cells/ml in a total volume of 200 µl per well. 0.1% of DMSO was used as a vehicle control. Following, the cells were treated with 2 µl test compound (from stock solutions in ethanol) to furnish the concentration range of study, 1 nM to 50 µM, and re-incubated for a further 72 h. The culture medium was then removed, and the cells washed with 100 µL phosphate buffered saline (PBS) and 50 µL MTT added, to reach a final concentration of 1 mg/mL. Cells were incubated for 2 h in darkness at 37 °C. Solubilisation was begun through the addition of […] DMSO, and the cells maintained at room temperature in darkness for 20 min to ensure thorough colour diffusion before reading the absorbance. Plates were incubated for 72 h at 37 °C + 5% CO2. The MTT (5 mg/mL in PBS) was added and incubated for another 4 h, and the optical density was detected with a microplate reader at 570 nm. Results were expressed as percentage viability relative to vehicle control (100%). Dose response curves were plotted and IC50 values (concentration of drug resulting in 50% reduction in cell survival) were obtained using the commercial software package Prism (GraphPad Software, Inc., La Jolla, CA, USA). All the experiments were repeated in at least three independent experiments.

bovine brain tubulin = experiment: Tubulin polymerisation assay; format: biochemical; conditions: Tubulin was at 10 µM; read-out: Tubulin assembly IC50 (inhibition of tubulin polymerisation)
Procedure: The assembly of purified bovine tubulin was monitored using a kit, BK006, purchased from Cytoskeleton Inc., (Denver, CO, USA). The assay was carried out in accordance with the manufacturer’s instructions using the standard assay conditions. Briefly, purified ([…]) in a buffer consisting of 80 mM PIPES (pH 6.9), 0.5 mM EGTA, 2 mM MgCl2, 1 mM GTP and 10% glycerol was incubated at 37 °C in the presence of either vehicle (2% (v/v) ddH2O), CA-4, or the quinoline compounds. Light is scattered proportionally to the concentration of polymerised microtubules in the assay. Therefore, tubulin assembly was monitored turbidimetrically at 340 nm in a Spectramax 340 PC spectrophotometer (Molecular Devices, Sunnyvale, CA, USA). The concentration that inhibits tubulin polymerisation by 50% (IC50) was determined using area under the curve (AUC). The AUC of the untreated controls were considered as 100% polymerisation. The IC50 value for each compound was computed using GraphPad Prism Software.

[1] = tested on: tubulin (colchicine binding site); experiment: Colchicine site competitive binding assay ([3H]colchicine); conditions: tubulin 1 µM, colchicine 5 µM
Procedure: The affinity of compounds 12c to colchicine binding site was determined using Colchicine Site Competitive Assay kit CytoDYNAMIX Screen15 (Cytoskeleton, Inc., Denver, CO, USA) using the standard protocol of the manufacturer to determine Ki. Biotin-labelled tubulin ([…], PerkinElmer, Waltham, MA) and the test compounds (positive control colchicine, negative control vinblastine, G-1, fluorescent G-1, or 2-ME) in a 96-well plate (final volume: 100 µL). After incubating for 2 h at 37 °C with gentle shaking, streptavidin-labelled yttrium SPA beads (80 µg in 20 µL reaction buffer, PerkinElmer, Waltham, MA) were added to each well and incubated for 30 min at 4 °C. The plates were then read on a scintillation counter (Packard Instrument, Topcount Microplate Reader) and the percentage of inhibition was calculated[50]^,[51].

MCF-10A = experiment: MTT cell viability assay, normal epithelial breast MCF-10A cells; format: cell-based; conditions: Homo sapiens, 72 h
Procedure: as §2, with “Dose response curves were plotted and IC50 values (concentration of drug resulting in 50% reduction in cell survival) were obtained using the commercial software package Prism (GraphPad Software, Inc., La Jolla, CA, USA). All the experiments were repeated in at least three independent experiments.” left out

MCF-7 cells [2] = experiment: Cell cycle analysis (PI, flow cytometry); format: cell-based, human; conditions: for percentage of cells in G0/G1 phase: control 57.3%
Procedure: MCF-7 cells were seeded at a density of 1 × 10^5 cells/well in 6-well plates and treated with CA-4 (50 nM) and compound 12c (50 and 250 nM) for 24, 48 and 72 h. The cells were collected by trypsinisation and centrifuged at 800×g for 15 min. Cells were washed twice with ice-cold PBS and fixed in ice-cold 70% ethanol overnight at −20 °C. Fixed cells were centrifuged at 800×g for 15 min and stained with 50 µg/mL of PI, containing 50 µg/mL of DNase-free RNase A, at 37 °C for 30 min. The DNA content of cells (10,000 cells/experimental group) was analysed by flow cytometer at 488 nm using a FACSCalibur flow cytometer (BD Biosciences, San Jose, CA) and all data were recorded and analysed using the CellQuest Software (Becton-Dickinson).

HeLa = experiment: MTT cell viability assay, HeLa cervical adenocarcinoma cells; format: cell-based; conditions: Homo sapiens, 72 h
Procedure: as §1, §2

MCF-7 cells [3] = experiment: Annexin V/PI apoptotic assay; format: cell-based, human; conditions: for percentage of Annexin V-staining positive cells: 48 h, untreated 1%; for percentage of early and late apoptotic cells: 72 h, untreated 2%
Procedure: Apoptotic cell death was detected by flow cytometry using Annexin V and propidium iodide (PI). […] Cells were then harvested and prepared for flow cytometric analysis. Cells were washed in 1X binding buffer (20X binding buffer: 0.1 M HEPES, pH 7.4; 1.4 M NaCl; 25 mM CaCl2 diluted in dH2O) and incubated in the dark for 30 min on ice in Annexin V-containing binding buffer [1:100]. Cells were then washed once in binding buffer and then re-suspended in PI-containing binding buffer [1:1000]. Samples were analysed immediately using the BD accuri flow cytometer and prism software for analysis the data. Four populations are produced during the assay Annexin V and PI negative (Q4, healthy cells), Annexin V positive and PI negative (Q3, early apoptosis), Annexin V and PI positive (Q2, late apoptosis) and Annexin V negative and PI positive (Q1, necrosis).

SMILES | IC50 (HCT-116) | IC50 (bovine brain tubulin) | Colchicine binding, % inhibition of [3H]colchicine binding ([1]; 1 µM drug) | Colchicine binding, % inhibition of [3H]colchicine binding ([1]; 5 µM drug) | IC50 (MCF-10A) | percentage of cells in G2/M phase (MCF-7 cells [2]; 50 nM, 48 h, untreated 9.2%) | percentage of cells in G2/M phase (MCF-7 cells [2]; 50 nM, 72 h) | IC50 (HeLa) | further results
COc1ccc(/C=C\c2cc(OC)c(OC)c(OC)c2)cc1O [CA-4, Combretastatin A-4] | 0.026 ± 0.001 µM | […] | 86 ± 0.9% | 97 ± 2% | 6.1 µM | 43.8% | 47.7% | 0.064 ± 0.004 µM | apoptosis, proportion of cells in sub-G1 phase (MCF-7 cells [2]; 50 nM, 24 h): 23.5%; percentage of cells in G2/M phase (MCF-7 cells [2]; 50 nM, 24 h): 40.3%; apoptosis, proportion of cells in sub-G1 phase (MCF-7 cells [2]; 50 nM, 48 h): 31.1%; apoptosis, proportion of cells in sub-G1 phase (MCF-7 cells [2]; 50 nM, 72 h): 37.4%; percentage of Annexin V-staining positive cells (MCF-7 cells [3]; 50 nM): 29%
COc1cc(C2=NC(=Cc3cc4ccc(C)cc4nc3OC)C(=O)O2)cc(OC)c1OC [Compound 12c, 4-[(2-Methoxy-7-methylquinolin-3-yl)methylene]-2–(3,4,5-trimethoxyphenyl) oxazol-5(4H)-one] | 0.022 ± 0.001 µM | 1.21 µM | 79 ± 2% | 87 ± 1% | > 50 µM | 28.4% | 33.0% | 0.042 ± 0.001 µM | percentage of cells in G0/G1 phase (MCF-7 cells [2]; 50 nM, 72 h): 40.3%; apoptosis, proportion of cells in sub-G1 phase (MCF-7 cells [2]; 250 nM, 24 h, untreated 1.5%): 16.2%; apoptosis, proportion of cells in sub-G1 phase (MCF-7 cells [2]; 250 nM, 48 h, untreated 1.5%): 23.4%; percentage of cells in G2/M phase (MCF-7 cells [2]; 250 nM, 48 h, untreated 9.2%): 38.3%; percentage of cells in G2/M phase (MCF-7 cells [2]; 250 nM, 72 h): 40.8%; percentage of cells in G0/G1 phase (MCF-7 cells [2]; 250 nM, 72 h): 29.8%; apoptosis, proportion of cells in sub-G1 phase (MCF-7 cells [2]; 250 nM, 72 h, untreated 1.5%): 32.7%; percentage of Annexin V-staining positive cells (MCF-7 cells [3]; 250 nM): 21%; percentage of Annexin V-staining positive cells (MCF-7 cells [3]; concentration printed as 0 nM): 15%; percentage of early and late apoptotic cells (MCF-7 cells [3]; concentration printed as 1 µM): 17.6%; percentage of early and late apoptotic cells (MCF-7 cells [3]; concentration printed as 5 µM): 29.3%
